PubChem BioAssay AID298 (DTP/NCI, 2004)
Several values for one entry are separate records, joined by “and”; a condition that tells them apart may be missing. Equal values may be shown once. Inconclusive results are not listed.

System: MX-1 breast xenograft, intrarenal, nude mice, tumor weight
Assay: NCI In Vivo Anticancer Drug Screen. Data for tumor model Human Mammary Carcinoma MX-1 Xenograft (intrarenal inoculation) in NU/NU BALB/C (nude) mice
Settings: endpoint: mean tumor weight change, higher = larger tumour
Procedure: The antitumor activity of compounds was measured in mice bearing transplantable tumors. Survival or tumor size were measured and the results are expressed as the measurement made in the treated group (T) divided by the measurement made in the vehicle treated control group (C). The tumor model used in this assay is Human Mammary Carcinoma MX-1 Xenograft (intrarenal inoculation) in NU/NU BALB/C (nude) mice

[1] = dose: 125.0 mg/kg/injection, schedule: Q04DX003 (ip), vehicle: saline with Tween-80
[2] = dose: 250.0 mg/kg/injection, schedule: Q04DX003 (ip), vehicle: saline with Tween-80
[3] = dose: 150.0 mg/kg/injection, schedule: Q04DX003 (ip), vehicle: saline with Tween-80
[4] = dose: 150.0 mg/kg/injection, schedule: Q04DX003 (sc), vehicle: saline
[5] = dose: 300.0 mg/kg/injection, schedule: Q04DX003 (ip), vehicle: saline with Tween-80
[6] = dose: 600.0 mg/kg/injection, schedule: Q04DX003 (ip), vehicle: saline with Tween-80
[7] = dose: 25.0 mg/kg/injection, schedule: Q04DX003 (ip), vehicle: saline
[8] = dose: 75.0 mg/kg/injection, schedule: Q04DX003 (ip), vehicle: saline with Tween-80
[9] = dose: 300.0 mg/kg/injection, schedule: Q04DX003 (ip), vehicle: Klucel (hydroxypropylcellulose) (HPC)
[10] = dose: 150.0 mg/kg/injection, schedule: Q04DX003 (ip), vehicle: water
[11] = dose: 37.5 mg/kg/injection, schedule: Q04DX003 (ip), vehicle: water

NC(=S=O)C(N)=S=O
T/C [1]: 42 % of control | T/C [2]: 65 % of control | T/C (dose: 500.0 mg/kg/injection, schedule: Q04DX003 (ip), vehicle: saline with Tween-80): 60 % of control

Cc1cc2c(=O)cc(-c3ccccc3)oc2c(C(=O)O)c1C
T/C [1]: 109 % of control | T/C [2]: 99 % of control

O=S(=O)(O)C1=CC(=N\Cl)/C=CC/1=N/Cl
T/C [3]: 89 % of control

Nc1nc(=S)c2[nH]cnc2[nH]1
T/C (dose: 1.6 mg/kg/injection, schedule: Q01DX010 (sc), vehicle: Klucel (hydroxypropylcellulose) (HPC)): 50 % of control

C1CC[N-]CC1.C1CC[N-]CC1.C1CC[N-]CC1.[Cl][Rh]([Cl])[Cl]
T/C (dose: 75.0 mg/kg/injection, schedule: Q04DX003 (sc), vehicle: saline): 90 % of control | T/C [4]: 90 % of control | T/C (dose: 300.0 mg/kg/injection, schedule: Q04DX003 (sc), vehicle: saline): 75 % of control

O=C1N[C@@H]2C(=C[C@H](O)[C@@H](O)[C@H]2O)c2cc3c(c(O)c21)OCO3
T/C (dose: 1.25 mg/kg/injection, schedule: Q04DX003 (sc), vehicle: saline with Tween-80): 71 % of control

CCOC(=O)Nc1cc2c(c(N)n1)N=C(c1ccccc1)CO2
T/C [3]: 73 % of control | T/C [5]: 80 % of control | T/C [6]: 51 % of control | T/C (dose: 1200.0 mg/kg/injection, schedule: Q04DX003 (ip), vehicle: saline with Tween-80): 68 % of control

CN(C)N=Nc1ccc(C(=O)O)cc1
T/C (dose: 100.0 mg/kg/injection, schedule: Q04DX003 (ip), vehicle: saline): 30 % of control | T/C (dose: 200.0 mg/kg/injection, schedule: Q04DX003 (ip), vehicle: saline): 2 % of control | T/C (dose: 400.0 mg/kg/injection, schedule: Q04DX003 (ip), vehicle: saline): -60 % of control

C[C@]12CC[C@H]3[C@@H](CCC4=C[C@@H](OC5OCC(OC6OC(CO)C(O)C(O)C6O)C(O)C5O)CC[C@@]43C=O)[C@@]1(O)CCC2C1=CC(=O)OC1 (stereo partly specified)
T/C (dose: 15.0 mg/kg/injection, schedule: Q04DX003 (sc), vehicle: Klucel (hydroxypropylcellulose) (HPC)): 118 % of control

CN(C)CCCN=c1c2ccccc2n(C)c2[nH]c(=O)n(C)c(=O)c12
T/C [7]: 112 % of control | T/C (dose: 50.0 mg/kg/injection, schedule: Q04DX003 (ip), vehicle: saline): 82 % of control

C[n+]1c(-c2ccc(/C=N/NC(=O)c3ccc(C(=O)N/N=C/c4ccc(-c5cn6ccccc6[n+]5C)cc4)cc3)cc2)cn2ccccc21
T/C [8]: 92 % of control | T/C [3]: 56 % of control | T/C [5]: 65 % of control | T/C [6]: 69 % of control

O=C1CC2(C(=O)N1CN1CCOCC1)c1ccccc1-c1ccccc12
T/C [9]: 97 % of control | T/C (dose: 600.0 mg/kg/injection, schedule: Q04DX003 (ip), vehicle: Klucel (hydroxypropylcellulose) (HPC)): 72 % of control

CS(=O)(=O)CS(=O)(=O)OCCF
T/C (dose: 6.25 mg/kg/injection, schedule: Q04DX003 (ip), vehicle: saline): 104 % of control | T/C (dose: 12.5 mg/kg/injection, schedule: Q04DX003 (ip), vehicle: saline): 84 % of control | T/C [7]: 69 % of control

Cc1ccc(C2NC(=O)c3ccccc3N2)s1 (stereo unspecified)
T/C (dose: 600.0 mg/kg/injection, schedule: Q04DX003 (sc), vehicle: Klucel (hydroxypropylcellulose) (HPC)): 105 % of control | T/C (dose: 1200.0 mg/kg/injection, schedule: Q04DX003 (sc), vehicle: Klucel (hydroxypropylcellulose) (HPC)): 106 % of control | T/C (dose: 2400.0 mg/kg/injection, schedule: Q04DX003 (sc), vehicle: Klucel (hydroxypropylcellulose) (HPC)): 118 % of control | T/C (dose: 4800.0 mg/kg/injection, schedule: Q04DX003 (sc), vehicle: Klucel (hydroxypropylcellulose) (HPC)): 97 % of control

N=C(N)c1ccc(N=Nc2c(O)ccc3cc(O)ccc23)cc1
T/C (dose: 75.0 mg/kg/injection, schedule: Q04DX003 (ip), vehicle: Klucel (hydroxypropylcellulose) (HPC)): 98 % of control and 123 % of control | T/C (dose: 150.0 mg/kg/injection, schedule: Q04DX003 (ip), vehicle: Klucel (hydroxypropylcellulose) (HPC)): 95 % of control and 117 % of control | T/C [9]: 70 % of control

CC1(O)C=CC(=O)C=C1
T/C (dose: 25.0 mg/kg/injection, schedule: Q04DX003 (ip), vehicle: water): 96 % of control | T/C (dose: 50.0 mg/kg/injection, schedule: Q04DX003 (ip), vehicle: water): 64 % of control

[Na+]
T/C [10]: 66 % of control | T/C (dose: 600.0 mg/kg/injection, schedule: Q04DX003 (ip), vehicle: water): 84 % of control | T/C (dose: 1200.0 mg/kg/injection, schedule: Q04DX003 (ip), vehicle: water): 97 % of control

O=NNc1ccc(Cl)cn1
T/C (dose: 4.7 mg/kg/injection, schedule: Q04DX003 (ip), vehicle: water): 60 % of control | T/C (dose: 9.4 mg/kg/injection, schedule: Q04DX003 (ip), vehicle: water): 59 % of control | T/C (dose: 18.7 mg/kg/injection, schedule: Q04DX003 (ip), vehicle: water): 29 % of control | T/C [11]: 4 % of control

NC(Cc1ccccc1)C(=O)OCN1C(=O)C2C3C=CC(C2C1=O)C1C2C(=O)N(COC(=O)C(N)Cc4ccccc4)C(=O)C2C31 (stereo unspecified)
T/C (dose: 21.6 mg/kg/injection, schedule: Q01DX009 (ip), vehicle: water): 76 % of control | T/C (dose: 25.0 mg/kg/injection, schedule: Q04DX003 (ip), vehicle: other): 94 % of control | T/C (dose: 30.9 mg/kg/injection, schedule: Q01DX009 (ip), vehicle: water): 57 % of control | T/C (dose: 44.1 mg/kg/injection, schedule: Q01DX009 (ip), vehicle: water): 111 % of control | T/C (dose: 50.0 mg/kg/injection, schedule: Q04DX003 (ip), vehicle: other): 86 % of control | T/C (dose: 63.0 mg/kg/injection, schedule: Q01DX009 (ip), vehicle: water): 52 % of control | T/C (dose: 90.0 mg/kg/injection, schedule: Q01DX009 (ip), vehicle: water): 24 % of control | T/C (dose: 100.0 mg/kg/injection, schedule: Q04DX003 (ip), vehicle: other): 65 % of control | T/C (dose: 200.0 mg/kg/injection, schedule: Q04DX003 (ip), vehicle: other): 39 % of control

NNC(=O)c1ccncc1
T/C [4]: 123 % of control

C/C(=N\NC(=S)N1CC2CCC(CC2)C1)c1nccs1
T/C [8]: 78 % of control

CC(C)NC(=O)N(CCCCBr)N=O
T/C (dose: 150.0 mg/kg/injection, schedule: Q04DX003 (sc), vehicle: Klucel (hydroxypropylcellulose) (HPC)): -61 % of control | T/C (dose: 300.0 mg/kg/injection, schedule: Q04DX003 (sc), vehicle: Klucel (hydroxypropylcellulose) (HPC)): -100 % of control

c1ccc2c3c(c4c(c2c1)CN(C1CCCCC1)CO4)OCN(C1CCCCC1)C3
T/C [11]: 108 % of control | T/C (dose: 75.0 mg/kg/injection, schedule: Q04DX003 (ip), vehicle: water): 82 % of control and 88 % of control | T/C [10]: 59 % of control | T/C (dose: 300.0 mg/kg/injection, schedule: Q04DX003 (ip), vehicle: water): 111 % of control

C/C=C\C1OC1(C)c1cc(=O)c2c(C)cc3c(c2o1)C(=O)c1c(O)c(C2CC(C)(N(C)C)C(OC(C)=O)C(C)O2)cc(C2CC(N(C)C)C(O)C(C)O2)c1C3=O (stereo unspecified)
T/C (dose: 0.75 mg/kg/injection, schedule: Q04DX003 (ip), vehicle: saline + alcohol): 89 % of control | T/C (dose: 1.5 mg/kg/injection, schedule: Q04DX003 (ip), vehicle: saline + alcohol): 34 % of control and 50 % of control | T/C (dose: 3.0 mg/kg/injection, schedule: Q04DX003 (ip), vehicle: saline + alcohol): 29 % of control and 47 % of control | T/C (dose: 6.0 mg/kg/injection, schedule: Q04DX003 (ip), vehicle: saline + alcohol): 11 % of control and 32 % of control | T/C (dose: 12.0 mg/kg/injection, schedule: Q04DX003 (ip), vehicle: saline + alcohol): 39 % of control

CC(=O)O[C@H]1C(=O)[C@@]2(C)C(C(OC(=O)c3ccccc3)[C@]3(O)C[C@H](OC(=O)C(OC(=O)CN(C)C)C(NC(=O)c4ccccc4)c4ccccc4)C(C)=C1C3(C)C)C1(OC(C)=O)COC1C[C@@H]2O (stereo partly specified)
T/C (dose: 1.88 mg/kg/injection, schedule: Q01DX009 (ip), vehicle: water): 64 % of control | T/C (dose: 3.75 mg/kg/injection, schedule: Q01DX009 (ip), vehicle: water): 5 % of control | T/C (dose: 5.9 mg/kg/injection, schedule: Q01DX009 (ip), vehicle: water): -78 % of control | T/C (dose: 7.5 mg/kg/injection, schedule: Q01DX009 (ip), vehicle: water): 4 % of control | T/C (dose: 8.9 mg/kg/injection, schedule: Q01DX009 (ip), vehicle: water): -53 % of control | T/C (dose: 13.3 mg/kg/injection, schedule: Q01DX009 (ip), vehicle: water): -100 % of control | T/C (dose: 15.0 mg/kg/injection, schedule: Q01DX009 (ip), vehicle: water): -80 % of control | T/C (dose: 20.0 mg/kg/injection, schedule: Q01DX009 (ip), vehicle: water): -100 % of control
